Source: article PMC3197159, “The Atypical Stimulant and Nootropic Modafinil Interacts with the Dopamine Transporter in a Different Manner than Classical Cocaine-Like Inhibitors” (PLoS ONE, 2011)

Experiments:
NET = test system: NET; parameters: method as in Madras et al. (2006) 53; conditions: ref Madras et al. (2006) 53; read-out: IC50, inhibition of noradrenaline uptake by the NET; cited from earlier work
WT human DAT = WT human DAT (Homo sapiens, UniProt Q01959); assay: [3H]CFT binding inhibition, intact HEK293 cells expressing WT hDAT; conditions: inhibition by cold β-CFT
Chain of WT human DAT (Q01959 whole entry): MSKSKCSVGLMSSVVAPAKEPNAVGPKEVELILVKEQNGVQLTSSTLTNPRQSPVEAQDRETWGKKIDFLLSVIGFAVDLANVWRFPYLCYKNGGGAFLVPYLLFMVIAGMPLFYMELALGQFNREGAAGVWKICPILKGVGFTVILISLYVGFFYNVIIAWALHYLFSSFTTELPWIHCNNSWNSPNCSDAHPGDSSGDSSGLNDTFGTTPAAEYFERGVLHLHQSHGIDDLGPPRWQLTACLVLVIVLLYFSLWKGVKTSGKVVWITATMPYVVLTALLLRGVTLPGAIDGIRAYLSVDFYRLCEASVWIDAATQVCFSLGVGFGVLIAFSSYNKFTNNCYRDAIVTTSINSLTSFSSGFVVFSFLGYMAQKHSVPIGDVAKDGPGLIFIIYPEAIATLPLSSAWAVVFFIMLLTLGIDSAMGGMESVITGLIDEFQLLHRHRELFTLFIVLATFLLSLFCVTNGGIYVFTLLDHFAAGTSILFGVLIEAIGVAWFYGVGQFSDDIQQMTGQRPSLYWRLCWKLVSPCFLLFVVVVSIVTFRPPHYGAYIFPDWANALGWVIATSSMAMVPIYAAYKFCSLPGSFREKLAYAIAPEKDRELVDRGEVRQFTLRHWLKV

COC(=O)C1C(c2ccc(F)cc2)CC2CCC1N2C (stereo not drawn) [β-CFT]
Bmax of [3H]CFT binding, sodium-free + Zn2+ (WT human DAT; sodium-free conditions with 10 µM Zn2+): 502±78 fmole/well
Bmax of [3H]CFT binding, sodium-free (WT human DAT; sodium-free conditions, no Zn2+): 125±15.8 fmole/well
